Test results as given in patent publication US20110319416A1, “Subunit Selective NMDA Receptor Antagonists For The Treatment Of Neurological Conditions” (EMORY UNIVERSITY, priority 2009, published 2011).
Where two headings read alike, the source gives them in different places.

Experiments:
NR1/NR2A = NR1/NR2A (Rattus norvegicus, UniProt P35439+Q00959); test: Two electrode voltage clamp, Xenopus oocytes expressing recombinant NR1/NR2A; assay type: cell-based; details: for remaining activity at 100 µM: read-out: 2A percent effect at the maximum tested concentration
NR1/NR2A, sequence (Q00959 23-1464, other chains not shown): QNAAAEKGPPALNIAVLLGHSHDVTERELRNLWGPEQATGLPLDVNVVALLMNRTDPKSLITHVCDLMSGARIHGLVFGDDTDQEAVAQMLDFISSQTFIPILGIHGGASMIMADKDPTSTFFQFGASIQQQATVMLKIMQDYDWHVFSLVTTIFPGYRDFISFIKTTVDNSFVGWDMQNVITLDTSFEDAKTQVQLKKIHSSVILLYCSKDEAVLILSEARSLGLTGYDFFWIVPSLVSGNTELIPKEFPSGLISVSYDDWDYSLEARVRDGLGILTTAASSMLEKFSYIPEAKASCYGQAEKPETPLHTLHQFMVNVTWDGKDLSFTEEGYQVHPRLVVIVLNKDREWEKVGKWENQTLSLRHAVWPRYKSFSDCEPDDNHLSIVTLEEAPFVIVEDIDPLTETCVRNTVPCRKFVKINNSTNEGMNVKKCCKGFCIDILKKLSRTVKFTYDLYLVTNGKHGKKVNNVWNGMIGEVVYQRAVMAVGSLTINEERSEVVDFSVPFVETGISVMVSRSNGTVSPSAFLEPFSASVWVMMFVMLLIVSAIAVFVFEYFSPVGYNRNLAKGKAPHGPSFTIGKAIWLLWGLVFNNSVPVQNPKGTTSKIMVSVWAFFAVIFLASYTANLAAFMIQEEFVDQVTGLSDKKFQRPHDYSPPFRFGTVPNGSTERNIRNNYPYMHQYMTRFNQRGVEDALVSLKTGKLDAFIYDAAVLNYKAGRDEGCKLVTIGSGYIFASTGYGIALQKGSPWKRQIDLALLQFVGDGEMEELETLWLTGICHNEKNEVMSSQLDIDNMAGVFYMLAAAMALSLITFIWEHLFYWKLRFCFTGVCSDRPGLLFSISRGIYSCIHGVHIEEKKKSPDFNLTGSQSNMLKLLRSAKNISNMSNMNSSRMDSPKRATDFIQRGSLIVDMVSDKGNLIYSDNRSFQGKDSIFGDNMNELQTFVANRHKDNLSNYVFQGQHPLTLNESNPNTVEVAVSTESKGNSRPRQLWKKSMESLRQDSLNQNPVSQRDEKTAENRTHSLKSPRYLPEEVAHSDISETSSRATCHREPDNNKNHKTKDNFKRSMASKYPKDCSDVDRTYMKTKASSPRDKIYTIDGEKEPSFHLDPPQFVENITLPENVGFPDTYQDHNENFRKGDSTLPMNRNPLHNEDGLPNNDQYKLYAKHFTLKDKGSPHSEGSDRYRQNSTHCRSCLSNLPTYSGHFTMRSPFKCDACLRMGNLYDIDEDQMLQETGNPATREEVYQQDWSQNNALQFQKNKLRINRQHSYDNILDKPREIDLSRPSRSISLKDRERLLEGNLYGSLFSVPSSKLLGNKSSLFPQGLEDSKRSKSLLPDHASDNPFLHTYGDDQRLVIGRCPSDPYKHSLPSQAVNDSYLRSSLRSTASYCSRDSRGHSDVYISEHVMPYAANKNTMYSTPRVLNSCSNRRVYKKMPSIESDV
Procedure: (§1) Quality of synthesized cRNA was assessed by gel electrophoresis, and quantity was estimated by spectroscopy and gel electrophoresis. Stage V and VI oocytes were surgically removed from the ovaries of large, well-fed and healthy Xenopus laevis anesthetized with 3-amino-benzoic acid ethyl ester (3 gm/l) as previously described. Clusters of isolated oocytes were incubated with 292 U/ml Worthington (Freehold, N.J.) type IV collagenase or 1.3 mg/ml collagenase (Life Technologies, Gaithersburg, MD; 17018-029) for 2 hr in Ca^2+-free solution comprised of (in mM) 115 NaCl, 2.5 KCl, and 10 HEPES, pH 7.5, with slow agitation to remove the follicular cell layer. Oocytes were then washed extensively in the same solution supplemented with 1.8 mM CaCl2 and maintained in Barth's solution comprised of (in mM): 88 NaCl, 1 KCl, 2.4 NaHCO3, 10 HEPES, 0.82 MgSO4, 0.33 Ca(NO3)2, and 0.91 CaCl2 and supplemented with 100 μg/m1 gentamycin, 10 μg/ml streptomycin, and 10 μg/ml penicillin. Oocytes were manually defolliculated and injected within 24 hrs of isolation with 3-5 ng of NR1 subunit cRNA and 7-10 ng of NR2 cRNA subunit in a 50 nl volume, or 5-10 ng of AMPA or kainate receptor cRNAs in a 50 nl volume, and incubated in Barth's solution at 18° C. for 1-7 d. Glass injection pipettes had tip sizes ranging from 10-20 microns, and were backfilled with mineral oil.
(§2) Two electrode voltage-clamp recordings were made 2-7 days post-injection as previously described. Oocytes were placed in a dual-track plexi-glass recording chamber with a single perfusion line that splits in a Y-configuration to perfuse two oocytes. Dual recordings were made at room temperature (23° C.) using two Warner OC725B two-electrode voltage clamp amplifiers, arranged as recommended by the manufacturer. Glass microelectrodes (1-10 Megaohms) were filled with 300 mM KCl (voltage electrode) or 3 M KCl (current electrode). The bath clamps communicated across silver chloride wires placed into each side of the recording chamber, both of which were assumed to be at a reference potential of 0 mV. Oocytes were perfused with a solution comprised of (in mM) 90 NaCl, 1 KCl, 10 HEPES, and 0.5 BaCl2; pH was adjusted by addition of 1-3 M NaOH of HC1 to 7.4. Oocytes were recorded under voltage clamp at −40 mV. […] In some experiments, 10 μM EDTA was obtained by adding a 1:1000 dilution of 10 mM EDTA, in order to chelate contaminant divalent ions such as Zn^2+. […] Concentration effect curves consisting of 4 to 8 concentrations were obtained in this manner. The baseline leak current at −40 mV was measured before and after recording, and the full recording linearly corrected for any change in leak current. […] Each experiment consisted of recordings from 3 to 10 oocytes obtained from a single frog. Results from multiple experiments were pooled, and the average percent responses at antagonist concentrations were fitted by the equation,
(§3) Percent Response=(100−minimum)/(1+([conc]/IC50)nH)+minimum

NR1/NR2B = NR1/NR2B (Rattus norvegicus, UniProt P35439+Q00960); test: Two electrode voltage clamp, Xenopus oocytes expressing recombinant NR1/NR2B; assay type: cell-based; details: for remaining activity at 100 µM: read-out: 2B percent effect at the maximum tested concentration
Procedure: as §1, §2, §3

NR1/NR2C [1] = target: NR1/NR2C (Rattus norvegicus, UniProt P35439+Q00961); test: Two electrode voltage clamp, Xenopus oocytes expressing recombinant NR1/NR2C; assay type: cell-based
NR1/NR2C (Rattus norvegicus, UniProt P35439+Q00961), sequence (Q00961 20-1237, other chains not shown): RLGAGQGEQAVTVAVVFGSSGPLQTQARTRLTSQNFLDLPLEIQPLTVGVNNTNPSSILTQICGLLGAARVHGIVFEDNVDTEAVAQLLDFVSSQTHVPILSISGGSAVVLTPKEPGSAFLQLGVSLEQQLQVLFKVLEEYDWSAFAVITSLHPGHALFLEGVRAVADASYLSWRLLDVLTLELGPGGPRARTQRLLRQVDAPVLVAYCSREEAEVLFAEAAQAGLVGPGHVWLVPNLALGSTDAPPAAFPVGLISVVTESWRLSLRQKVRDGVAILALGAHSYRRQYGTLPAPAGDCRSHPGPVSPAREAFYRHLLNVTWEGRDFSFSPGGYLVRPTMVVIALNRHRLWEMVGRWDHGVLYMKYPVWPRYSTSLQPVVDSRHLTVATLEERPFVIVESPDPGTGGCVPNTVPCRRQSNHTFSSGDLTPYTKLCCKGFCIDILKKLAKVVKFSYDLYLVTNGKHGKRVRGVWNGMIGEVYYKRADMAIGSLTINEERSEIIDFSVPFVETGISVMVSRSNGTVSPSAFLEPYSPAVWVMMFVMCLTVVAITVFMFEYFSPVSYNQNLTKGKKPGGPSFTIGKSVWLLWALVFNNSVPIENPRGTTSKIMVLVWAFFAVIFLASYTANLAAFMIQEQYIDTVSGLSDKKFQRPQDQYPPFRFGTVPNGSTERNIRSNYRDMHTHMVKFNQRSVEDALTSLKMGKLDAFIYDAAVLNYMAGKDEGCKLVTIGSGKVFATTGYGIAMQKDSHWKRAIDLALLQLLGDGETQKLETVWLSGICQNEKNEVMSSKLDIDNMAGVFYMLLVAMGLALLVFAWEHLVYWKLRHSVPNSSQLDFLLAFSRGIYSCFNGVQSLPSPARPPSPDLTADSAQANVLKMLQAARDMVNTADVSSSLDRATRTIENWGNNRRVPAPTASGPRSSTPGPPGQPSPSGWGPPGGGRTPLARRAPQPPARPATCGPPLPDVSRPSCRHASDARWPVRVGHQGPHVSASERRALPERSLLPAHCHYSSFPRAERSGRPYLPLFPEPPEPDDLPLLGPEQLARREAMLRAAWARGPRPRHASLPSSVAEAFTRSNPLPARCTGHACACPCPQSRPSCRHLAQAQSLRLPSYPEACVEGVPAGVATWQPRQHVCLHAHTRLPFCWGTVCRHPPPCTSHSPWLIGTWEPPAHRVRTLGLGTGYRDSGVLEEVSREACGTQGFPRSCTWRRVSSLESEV
Procedure: as §1, §2, §3

NR1/NR2D [2] = target: NR1/NR2D (Rattus norvegicus, UniProt P35439+Q62645); test: Two electrode voltage clamp, Xenopus oocytes expressing recombinant NR1/NR2D; assay type: cell-based
NR1/NR2D (Rattus norvegicus, UniProt P35439+Q62645), sequence (Q62645 28-1323, other chains not shown): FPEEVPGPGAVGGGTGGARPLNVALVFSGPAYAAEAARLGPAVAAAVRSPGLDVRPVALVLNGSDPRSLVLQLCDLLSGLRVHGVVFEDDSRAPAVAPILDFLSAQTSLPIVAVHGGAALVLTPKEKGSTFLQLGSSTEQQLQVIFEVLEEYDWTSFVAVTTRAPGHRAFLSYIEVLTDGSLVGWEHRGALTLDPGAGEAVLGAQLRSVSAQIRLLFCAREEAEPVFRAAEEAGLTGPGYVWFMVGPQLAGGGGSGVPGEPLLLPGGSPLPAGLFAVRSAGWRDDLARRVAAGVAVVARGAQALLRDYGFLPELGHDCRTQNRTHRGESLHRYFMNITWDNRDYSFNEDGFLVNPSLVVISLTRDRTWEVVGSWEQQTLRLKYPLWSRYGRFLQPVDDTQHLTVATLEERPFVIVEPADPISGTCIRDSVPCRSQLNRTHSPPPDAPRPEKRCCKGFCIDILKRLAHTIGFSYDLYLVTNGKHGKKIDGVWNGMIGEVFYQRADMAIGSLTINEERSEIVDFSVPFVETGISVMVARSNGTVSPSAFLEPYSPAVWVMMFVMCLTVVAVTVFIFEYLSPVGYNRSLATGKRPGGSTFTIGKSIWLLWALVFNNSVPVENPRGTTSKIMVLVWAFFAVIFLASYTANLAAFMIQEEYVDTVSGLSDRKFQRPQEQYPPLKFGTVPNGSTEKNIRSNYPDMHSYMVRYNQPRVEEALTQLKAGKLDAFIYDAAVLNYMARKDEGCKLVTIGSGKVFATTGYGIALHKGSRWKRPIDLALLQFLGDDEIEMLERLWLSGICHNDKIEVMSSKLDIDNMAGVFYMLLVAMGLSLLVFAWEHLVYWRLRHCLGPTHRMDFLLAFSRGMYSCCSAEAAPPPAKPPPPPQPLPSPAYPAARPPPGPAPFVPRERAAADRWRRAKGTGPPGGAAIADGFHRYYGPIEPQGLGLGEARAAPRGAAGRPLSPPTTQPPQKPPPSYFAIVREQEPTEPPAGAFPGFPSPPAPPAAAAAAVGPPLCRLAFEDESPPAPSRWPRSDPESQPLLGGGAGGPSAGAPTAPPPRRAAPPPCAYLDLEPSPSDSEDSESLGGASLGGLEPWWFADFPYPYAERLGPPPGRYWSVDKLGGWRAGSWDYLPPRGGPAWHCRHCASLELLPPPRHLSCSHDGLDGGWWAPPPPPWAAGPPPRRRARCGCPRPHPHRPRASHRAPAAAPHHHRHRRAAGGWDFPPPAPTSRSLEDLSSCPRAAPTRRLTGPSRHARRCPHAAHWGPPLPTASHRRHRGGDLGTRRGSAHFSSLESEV
Procedure: as §1, §2, §3

GluR1 = GluR1 (Rattus norvegicus, UniProt P19490); test: Two electrode voltage clamp, Xenopus oocytes expressing GluR1; assay type: cell-based; details: for remaining activity at 100 µM: read-out: GluR1 percent effect at the maximum tested concentration
GluR1, sequence (P19490 19-907): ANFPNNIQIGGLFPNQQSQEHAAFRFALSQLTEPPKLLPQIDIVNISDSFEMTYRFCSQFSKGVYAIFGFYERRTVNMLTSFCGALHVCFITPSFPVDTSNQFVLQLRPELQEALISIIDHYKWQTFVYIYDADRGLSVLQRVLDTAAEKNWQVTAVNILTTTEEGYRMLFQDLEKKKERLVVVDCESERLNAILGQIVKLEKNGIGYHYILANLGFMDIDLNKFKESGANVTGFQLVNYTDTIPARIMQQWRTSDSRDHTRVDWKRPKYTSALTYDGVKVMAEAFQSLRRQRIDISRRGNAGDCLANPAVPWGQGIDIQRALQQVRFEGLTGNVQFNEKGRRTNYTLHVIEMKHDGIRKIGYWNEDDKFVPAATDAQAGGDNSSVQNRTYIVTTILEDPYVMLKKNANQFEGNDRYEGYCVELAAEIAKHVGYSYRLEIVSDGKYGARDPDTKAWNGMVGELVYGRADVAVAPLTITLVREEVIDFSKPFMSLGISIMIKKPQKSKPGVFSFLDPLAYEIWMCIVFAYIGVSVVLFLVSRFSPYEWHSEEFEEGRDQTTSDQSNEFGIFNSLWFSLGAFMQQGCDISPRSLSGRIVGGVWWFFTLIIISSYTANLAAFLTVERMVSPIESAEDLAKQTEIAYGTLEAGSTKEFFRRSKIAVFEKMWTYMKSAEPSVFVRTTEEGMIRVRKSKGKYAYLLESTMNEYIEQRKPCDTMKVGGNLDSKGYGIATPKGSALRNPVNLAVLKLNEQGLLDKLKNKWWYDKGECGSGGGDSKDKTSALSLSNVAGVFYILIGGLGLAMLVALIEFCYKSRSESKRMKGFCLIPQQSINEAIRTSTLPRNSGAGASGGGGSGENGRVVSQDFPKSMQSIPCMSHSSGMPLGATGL
Procedure: as §1, §2, §3

NR1/NR2D [3] = target: T1, NR1/NR2D (Rattus norvegicus, UniProt Q62645); test: Ca2+ fluorescence screening assay in NR1/NR2D expressing BHK cells (96 well); assay type: cell-based; set-up: expressed in transfected cells; host or cells: BHK-21 cells; NR1 induced by doxycyclin (Tet-On), NR2D constitutive
T1 sequence (Q62645 28-1323, other chains not shown): as the sequence (Q62645 28-1323, other chains not shown) above

NR1/NR2D [4] = target: T1, NR1/NR2D; test: Two electrode voltage clamp, Xenopus oocytes expressing recombinant NR1/NR2D; assay type: cell-based
Procedure: as §1, §2, §3

NR1/NR2C [5] = target: NR1/NR2C (Rattus norvegicus, UniProt Q00961); test: Two electrode voltage clamp, Xenopus oocytes expressing recombinant NR1/NR2C; assay type: cell-based; details: logistic fit, minimum forced to 0; read-out: 2C IC50
NR1/NR2C (Rattus norvegicus, UniProt Q00961), sequence (Q00961 20-1237, other chains not shown): as the sequence (Q00961 20-1237, other chains not shown) above
Procedure: as §1, §2, §3

NR2C = NR2C (Homo sapiens, UniProt Q05586+Q14957); details: non-competitive and uncompetitive antagonists; read-out: 2C (μM) IC50; cited from earlier work
NR2D = NR2D (Homo sapiens, UniProt O15399+Q05586); details: non-competitive and uncompetitive antagonists; read-out: 2D (μM) IC50; cited from earlier work
[6] = logistic fit, minimum forced to 0, read-out: 2C IC50
[7] = logistic fit, minimum forced to 0, read-out: 2D IC50
[8] = 10 μM test compound, 100 μM glutamate/1 mM glycine

Compound: CC(C)N(C(=O)Oc1ccc(C(=O)Oc2ccc3cccc(N)c3c2)cc1)C(C)C [1063-13]
- remaining activity at 100 µM (NR1/NR2A): 89%
- remaining activity at 100 µM (NR1/NR2B): 84%
- IC50 (NR1/NR2C [1]): 385 µM
- IC50 (NR1/NR2D [2]): 55 µM
- remaining activity at 100 µM (GluR1): 117%

Compound: CCN(CC)C(=S)Oc1ccc(C(=O)Nc2cccc3cc[nH]c23)cc1 [1063-21]
- remaining activity at 100 µM (NR1/NR2A; at 100 μM): 94%
- remaining activity at 100 µM (NR1/NR2B; at 100 μM): 78%
- IC50 (NR1/NR2C [1]; [6]): 15 µM
- IC50 (NR1/NR2D [2]; [7]): 4 µM
- remaining activity at 100 µM (GluR1; at 100 μM): 102%

Compound: CC12CC3CC(C)(C1)CC(N)(C3)C2 [memantine]
- identification in test screen of NR1/NR2D expressing BHK cells (NR1/NR2D [3]): successfully identified

Compound: CCN(CC)C(=O)Oc1ccc(C(=O)Nc2cc(C(=O)OC)cc3c(C)c[nH]c23)cc1 [1063-35]
- IC50 (NR1/NR2A): 177 µM
- IC50 (NR1/NR2B): 238 µM
- remaining activity at 100 µM (NR1/NR2C [1]; read-out: 2C percent effect at the maximum tested concentration): 77%
- remaining activity at 100 µM (NR1/NR2D [2]; read-out: 2D percent effect at the maximum tested concentration): 80%
- remaining activity at 100 µM (GluR1): 97%

Compound: C=CCN1CCC2(C)c3cc(O)ccc3CC1C2C (stereo not shown) [N-allylnormetazoline]
- identification in test screen of NR1/NR2D expressing BHK cells (NR1/NR2D [3]; [8]): successfully identified

Compound: C=CCN1CC[C@]23CCCC[C@H]2[C@H]1Cc1ccc(O)cc13 [levallorphan]
- identification in test screen of NR1/NR2D expressing BHK cells (NR1/NR2D [3]; [8]): successfully identified

Compound: O=c1[nH]c2ccc(Cl)cc2c(-c2ccccc2)c1C1=NNC(c2ccc(Br)cc2)C1 (stereo not shown) [compound 1249]
- 2D percent response at the maximum tested concentration (NR1/NR2D [4]): 79% at 30 μM

Compound: (+)MK-801
- identification in test screen of NR1/NR2D expressing BHK cells (NR1/NR2D [3]; [8]): successfully identified

Compound: Cc1ccc2[nH]c(=O)c(C3=NN(C(=O)CCC(=O)O)C(c4ccc(Br)cc4)C3)c(-c3ccccc3)c2c1 (stereo not shown) [compound 1105]
- IC50 (NR1/NR2A; logistic fit, minimum forced to 0, read-out: 2A IC50): 218 µM
- IC50 (NR1/NR2B; logistic fit, minimum forced to 0, read-out: 2B IC50): 74 µM
- IC50 (NR1/NR2C [1]; [6]): 7 µM
- IC50 (NR1/NR2C [5]): 7 µM
- IC50 (NR1/NR2D [2]; [7]): 3 µM
- IC50 (NR1/NR2D [4]; [7]): 3 µM
- IC50 (GluR1; logistic fit, minimum forced to 0): 109 µM

Compound: CCc1cccc(N(C)C(N)=Nc2cccc3ccccc23)c1 [CNS-1102]
- identification in test screen of NR1/NR2D expressing BHK cells (NR1/NR2D [3]; [8]): successfully identified

Compound: CC(=O)N1N=C(c2c(-c3ccccc3)c3cc(C)ccc3[nH]c2=O)CC1c1ccc(Br)cc1 (stereo not shown) [compound 1250]
- 2D percent response at the maximum tested concentration (NR1/NR2D [4]): 81% at 30 μM

Compound: C[C@]12N[C@H](Cc3ccccc31)c1ccccc12 [(—)MK-801]
- IC50 (NR2C): 0.04 µM
- IC50 (NR2D): 0.17 µM
- identification in test screen of NR1/NR2D expressing BHK cells (NR1/NR2D [3]; [8]): successfully identified

Compound: CC(C)N(C(=O)Oc1ccc(C(=O)Nc2cccc3ccccc23)cc1)C(C)C [1063-4]
- IC50 (NR1/NR2A): 874 µM
- IC50 (NR1/NR2B): 158 µM
- IC50 (NR1/NR2C [1]): 8 µM
- IC50 (NR1/NR2D [2]): 5 µM
- remaining activity at 100 µM (GluR1): 130%
